This assay concerns the target T1, Bcl-2 protein (Recombinant Human Bcl-2 Protein) (Homo sapiens, UniProt P10415).
T1 construct: purchased Novus Biologicals NBP2-34889
In words: AS-MS evaluation of binding of the Example 4 mixture library (1200 compounds/well) to Bcl-2, ASMS ratio (%). To be noted: Example 4 mixture library. The method, boiled down:
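A pooled 1200-compound mixture (20 nM each final) was incubated with 20 μM recombinant human Bcl-2 in pH 7.4 Tris-HCl buffer with NaCl, Tween-20 and DTT for 1 h at 23° C. in the dark. Bound ligands were separated by spin-column SEC and measured by reverse-phase LC/MS; ASMS ratio (%) was calculated against protein-free unfiltered standard and protein-free SEC blank.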

The mark [1] stands for this setting: 1200 compounds/well, Bcl-2 protein, replicate n = 2, value belongs to the MS peak assignable to the compound.

T1 sequence (P10415 whole entry): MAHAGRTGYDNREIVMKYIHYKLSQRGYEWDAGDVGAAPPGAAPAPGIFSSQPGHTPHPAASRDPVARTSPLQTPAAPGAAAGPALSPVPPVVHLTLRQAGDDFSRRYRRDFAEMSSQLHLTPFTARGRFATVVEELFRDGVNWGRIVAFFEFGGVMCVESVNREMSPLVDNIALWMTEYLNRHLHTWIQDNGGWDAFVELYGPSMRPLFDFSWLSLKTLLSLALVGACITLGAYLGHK

`CCOc1cncc(-c2cc(CN3CCN(c4ccc(C(=O)NS(=O)(=O)CCC(F)(F)F)nn4)CC3)cc(C(F)(F)F)c2)c1` [Compound B2N088-01, 6-[4-[[3-(5-Ethoxypyridin-3-yl)-5-(trifluoromethyl)phenyl]methyl]piperazin-1-yl]-N-(3,3,3-trifluoropropylsulfonyl)pyridazine-3-carboxamide]: under “AS-MS, Bcl-2, replicate n = 1”, the “ASMS ratio (%) n = 1” value was 0.0%. Besides, the “ASMS ratio (%) n = 2” value (AS-MS, Bcl-2, replicate n = 2) is 0.0%.

`CCOc1cccc(-c2cc(CN3CCN(c4ccc(C(=O)NS(=O)(=O)CCC(F)(F)F)nn4)CC3)cc(OC(F)(F)F)c2)c1` [Compound B2N089-01, 6-[4-[[3-(3-Ethoxyphenyl)-5-(trifluoromethoxy)phenyl]methyl]piperazin-1-yl]-N-(3,3,3-trifluoropropylsulfonyl)pyridazine-3-carboxamide]: the “ASMS ratio (%) n = 2” value (AS-MS, Bcl-2, replicate n = 2) is given as 0.0%.

Take `CCOc1cncc(-c2cc(CN3CCN(c4ccc(C(=O)NS(=O)(=O)CCC(F)(F)F)nn4)CC3)cc(OC(F)(F)F)c2)c1` [Compound B2N090-01, 6-[4-[[3-(5-Ethoxypyridin-3-yl)-5-(trifluoromethoxy)phenyl]methyl]piperazin-1-yl]-N-(3,3,3-trifluoropropylsulfonyl)pyridazine-3-carboxamide]: for the setting “AS-MS, Bcl-2, replicate n = 1”, the “ASMS ratio (%) n = 1” value came to 0.0%. In addition, the “ASMS ratio (%) n = 2” value (AS-MS, Bcl-2, replicate n = 2) is 0.0%.

Regarding `CCOc1cccc(-c2ccc(CN3CCN(c4ccc(C(=O)NS(=O)(=O)CCC(F)(F)F)nn4)CC3)c3ccccc23)c1` [Compound B2N091-01, 6-[4-[[4-(3-Ethoxyphenyl)naphthalen-1-yl]methyl]piperazin-1-yl]-N-(3,3,3-trifluoropropylsulfonyl)pyridazine-3-carboxamide], where the note is “AS-MS, Bcl-2, replicate n = 1”, the “ASMS ratio (%) n = 1” value is 0.0%. Moreover, under “AS-MS, Bcl-2, replicate n = 2”, the “ASMS ratio (%) n = 2” value came to 0.0%.

Regarding `CCOc1cncc(-c2ccc(CN3CCN(c4ccc(C(=O)NS(=O)(=O)CCC(F)(F)F)nn4)CC3)c3ccccc23)c1` [Compound B2N092-01, 6-[4-[[4-(5-Ethoxypyridin-3-yl)naphthalen-1-yl]methyl]piperazin-1-yl]-N-(3,3,3-trifluoropropylsulfonyl)pyridazine-3-carboxamide], the “ASMS ratio (%) n = 1” value (AS-MS, Bcl-2, replicate n = 1) came out at 0.0%. Moreover, under “AS-MS, Bcl-2, replicate n = 2”, the “ASMS ratio (%) n = 2” value is 0.0%.

`CCOc1cccc(-c2csc(CN3CCN(c4ccc(C(=O)NS(=O)(=O)CCC(F)(F)F)nn4)CC3)c2)c1` [Compound B2N093-01]: where the note is “AS-MS, Bcl-2, replicate n = 1”, the “ASMS ratio (%) n = 1” value is 0.0%.

Take `CCOc1cncc(-c2csc(CN3CCN(c4ccc(C(=O)NS(=O)(=O)CCC(F)(F)F)nn4)CC3)c2)c1` [Compound B2N094-01, 6-[4-[[4-(5-Ethoxypyridin-3-yl)thiophen-2-yl]methyl]piperazin-1-yl]-N-(3,3,3-trifluoropropylsulfonyl)pyridazine-3-carboxamide]: the “ASMS ratio (%) n = 1” value (AS-MS, Bcl-2, replicate n = 1) is reported as 0.0%. For the same compound, the “ASMS ratio (%) n = 2” value (AS-MS, Bcl-2, replicate n = 2) is reported as 0.0%.

As for `CCOc1cccc(C#Cc2ccccc2CN2CCN(c3ccc(C(=O)NS(=O)(=O)CCC(F)(F)F)nn3)CC2)c1` [Compound B2N095-01], the “ASMS ratio (%) n = 1” value (AS-MS, Bcl-2, replicate n = 1) was determined as 0.0%. Moreover, the “ASMS ratio (%) n = 2” value (AS-MS, Bcl-2, replicate n = 2) stood at 0.0%.

In the case of `CCOc1cccc(-c2ccc(C(C)N3CCN(c4ccc(C(=O)NS(=O)(=O)CCC(F)(F)F)cc4)CC3)cc2)c1` (stereo not shown) [Compound B2N097-01, 4-[4-[1-[4-(3-Ethoxyphenyl)phenyl]ethyl]piperazin-1-yl]-N-(3,3,3-trifluoropropylsulfonyl)benzamide], for the setting “AS-MS, Bcl-2, replicate n = 1”, the “ASMS ratio (%) n = 1” value is recorded as 0.0%. The “ASMS ratio (%) n = 2” value (AS-MS, Bcl-2, replicate n = 2) was found to be 0.0%.

As to `CCOc1cncc(-c2ccc(C(C)N3CCN(c4ccc(C(=O)NS(=O)(=O)CCC(F)(F)F)cc4)CC3)cc2)c1` (stereo not shown) [Compound B2N098-01, 4-[4-[1-[4-(5-Ethoxypyridin-3-yl)phenyl]ethyl]piperazin-1-yl]-N-(3,3,3-trifluoropropylsulfonyl)benzamide], the “ASMS ratio (%) n = 1” value (AS-MS, Bcl-2, replicate n = 1) is listed as 0.0%. The “ASMS ratio (%) n = 2” value (AS-MS, Bcl-2, replicate n = 2) is on record as −0.7%.

Take `CCOc1cccc(-c2ccc(C(C)N3CCN(c4ccc(C(=O)NS(=O)(=O)CCC(F)(F)F)cc4)CC3)c(F)c2)c1` (stereo not shown) [Compound B2N099-01, 4-[4-[1-[4-(3-Ethoxyphenyl)-2-fluorophenyl]ethyl]piperazin-1-yl]-N-(3,3,3-trifluoropropylsulfonyl)benzamide]: the “ASMS ratio (%) n = 1” value (AS-MS, Bcl-2, replicate n = 1) came to 0.0%. The “ASMS ratio (%) n = 2” value (AS-MS, Bcl-2, replicate n = 2) came out at 0.0%.

In the case of `CCOc1cncc(-c2ccc(C(C)N3CCN(c4ccc(C(=O)NS(=O)(=O)CCC(F)(F)F)cc4)CC3)c(F)c2)c1` (stereo not shown) [Compound B2N100-01, 4-[4-[1-[4-(5-Ethoxypyridin-3-yl)-2-fluorophenyl]ethyl]piperazin-1-yl]-N-(3,3,3-trifluoropropylsulfonyl)benzamide], the “ASMS ratio (%) n = 1” value (AS-MS, Bcl-2, replicate n = 1) is 0.0%. In addition, the “ASMS ratio (%) n = 2” value (AS-MS, Bcl-2, replicate n = 2) is given as 0.0%.

Regarding `CCOc1cncc(-c2cc(C(=O)N3CCN(c4ccc(C(=O)NS(=O)(=O)c5ccc(NCCSc6ccccc6)c([N+](=O)[O-])c5)cc4)CC3)cc(C(F)(F)F)c2)c1` [Compound B2Q040-01, 4-[4-[3-(5-Ethoxypyridin-3-yl)-5-(trifluoromethyl)benzoyl]piperazin-1-yl]-N-[3-nitro-4-(2-phenylsulfanylethylamino)phenyl]sulfonylbenzamide], the “ASMS ratio (%) n = 1” value (1200 compounds/well, Bcl-2 protein, replicate n = 1, value belongs to the MS peak assignable to the compound) is listed as 3.9%. For the same compound, the “ASMS ratio (%) n = 2” value under setting [1] turned out to be 1.5%.

Turning to `CCOc1cccc(-c2cc(CN3CCN(c4ccc(C(=O)NS(=O)(=O)c5ccc(NCCSc6ccccc6)c([N+](=O)[O-])c5)nn4)CC3)cc(OC(F)(F)F)c2)c1` [Compound B2Q089-01, 6-[4-[[3-(3-Ethoxyphenyl)-5-(trifluoromethoxy)phenyl]methyl]piperazin-1-yl]-N-[3-nitro-4-(2-phenylsulfanylethylamino)phenyl]sulfonylpyridazine-3-carboxamide], the “ASMS ratio (%) n = 2” value under setting [1] is on record as −15.0%.

Turning to `CCOc1cncc(-c2csc(C(=O)N3CCN(c4ccc(C(=O)NS(=O)(=O)c5ccc(NCCSc6ccccc6)c(C(F)(F)F)c5)nn4)CC3)c2)c1` [Compound B2R002-01, 6-[4-[4-(5-Ethoxypyridin-3-yl)thiophene-2-carbonyl]piperazin-1-yl]-N-[4-(2-phenylsulfanylethylamino)-3-(trifluoromethyl)phenyl]sulfonylpyridazine-3-carboxamide], under “AS-MS, Bcl-2, replicate n = 1”, the “ASMS ratio (%) n = 1” value turned out to be 0.0%. Further, the “ASMS ratio (%) n = 2” value (AS-MS, Bcl-2, replicate n = 2) is given as 0.0%.

Turning to `CCOc1cccc(-c2ccc(C(=O)N3CCN(c4ccc(C(=O)NS(=O)(=O)c5ccc(NCCSc6ccccc6)c(C(F)(F)F)c5)nn4)CC3)cc2C)c1` [Compound B2R003-01, 6-[4-[4-(3-Ethoxyphenyl)-3-methylbenzoyl]piperazin-1-yl]-N-[4-(2-phenylsulfanylethylamino)-3-(trifluoromethyl)phenyl]sulfonylpyridazine-3-carboxamide], the “ASMS ratio (%) n = 1” value (AS-MS, Bcl-2, replicate n = 1) is 21.6%. Moreover, the “ASMS ratio (%) n = 2” value (AS-MS, Bcl-2, replicate n = 2) is listed as 0.0%.

Consider `CCOc1cncc(-c2ccc(C(=O)N3CCN(c4ccc(C(=O)NS(=O)(=O)c5ccc(NCCSc6ccccc6)c(C(F)(F)F)c5)nn4)CC3)cc2C)c1` [Compound B2R004-01, 6-[4-[4-(5-Ethoxypyridin-3-yl)-3-methylbenzoyl]piperazin-1-yl]-N-[4-(2-phenylsulfanylethylamino)-3-(trifluoromethyl)phenyl]sulfonylpyridazine-3-carboxamide], for which the “ASMS ratio (%) n = 1” value (AS-MS, Bcl-2, replicate n = 1) came out at 0.0%. In addition, the “ASMS ratio (%) n = 2” value (AS-MS, Bcl-2, replicate n = 2) is reported as 0.0%.

Consider `CCOc1cccc(-c2ccc(C(=O)N3CCN(c4ccc(C(=O)NS(=O)(=O)c5ccc(NCCSc6ccccc6)c(C(F)(F)F)c5)nn4)CC3)cc2F)c1` [Compound B2R005-01, 6-[4-[4-(3-Ethoxyphenyl)-3-fluorobenzoyl]piperazin-1-yl]-N-[4-(2-phenylsulfanylethylamino)-3-(trifluoromethyl)phenyl]sulfonylpyridazine-3-carboxamide], for which the “ASMS ratio (%) n = 1” value (AS-MS, Bcl-2, replicate n = 1) turned out to be 44.0%. For the same compound, the “ASMS ratio (%) n = 2” value (AS-MS, Bcl-2, replicate n = 2) is reported as 39.5%.

Turning to `CCOc1cccc(C#Cc2ccccc2C(=O)N2CCN(c3ccc(C(=O)NS(=O)(=O)c4ccc(NCCSc5ccccc5)c(C(F)(F)F)c4)nn3)CC2)c1` [Compound B2R007-01, 6-[4-[2-[2-(3-Ethoxyphenyl)ethynyl]benzoyl]piperazin-1-yl]-N-[4-(2-phenylsulfanylethylamino)-3-(trifluoromethyl)phenyl]sulfonylpyridazine-3-carboxamide], the “ASMS ratio (%) n = 1” value (AS-MS, Bcl-2, replicate n = 1) amounted to 0.0%.

Take `CCOc1cncc(C#Cc2ccccc2C(=O)N2CCN(c3ccc(C(=O)NS(=O)(=O)c4ccc(NCCSc5ccccc5)c(C(F)(F)F)c4)nn3)CC2)c1` [Compound B2R008-01, 6-[4-[2-[2-(5-Ethoxypyridin-3-yl)ethynyl]benzoyl]piperazin-1-yl]-N-[4-(2-phenylsulfanylethylamino)-3-(trifluoromethyl)phenyl]sulfonylpyridazine-3-carboxamide]: the “ASMS ratio (%) n = 1” value (AS-MS, Bcl-2, replicate n = 1) was 0.0%. Further, the “ASMS ratio (%) n = 2” value (AS-MS, Bcl-2, replicate n = 2) worked out at 19.5%.

Turning to `CCOc1cccc(C#Cc2cncc(C(=O)N3CCN(c4ccc(C(=O)NS(=O)(=O)c5ccc(NCCSc6ccccc6)c(C(F)(F)F)c5)nn4)CC3)c2)c1` [Compound B2R009-01, 6-[4-[5-[2-(3-Ethoxyphenyl)ethynyl]pyridine-3-carbonyl]piperazin-1-yl]-N-[4-(2-phenylsulfanylethylamino)-3-(trifluoromethyl)phenyl]sulfonylpyridazine-3-carboxamide], the “ASMS ratio (%) n = 1” value (AS-MS, Bcl-2, replicate n = 1) came to 0.0%. Under “AS-MS, Bcl-2, replicate n = 2”, the “ASMS ratio (%) n = 2” value is reported as 19.5%.

For `CCOc1cncc(C#Cc2cncc(C(=O)N3CCN(c4ccc(C(=O)NS(=O)(=O)c5ccc(NCCSc6ccccc6)c(C(F)(F)F)c5)nn4)CC3)c2)c1` [Compound B2R010-01, 6-[4-[5-[2-(5-Ethoxypyridin-3-yl)ethynyl]pyridine-3-carbonyl]piperazin-1-yl]-N-[4-(2-phenylsulfanylethylamino)-3-(trifluoromethyl)phenyl]sulfonylpyridazine-3-carboxamide], the “ASMS ratio (%) n = 1” value (AS-MS, Bcl-2, replicate n = 1) turned out to be 0.0%. For the setting “AS-MS, Bcl-2, replicate n = 2”, the “ASMS ratio (%) n = 2” value worked out at 0.0%.
